{"source": "paper PMC2892883", "about": "(Behavioural brain research, 2010)", "biological_target": "mGluR8b (Homo sapiens, UniProt O00222)", "sequence (O00222 34-908 isoform O00222-2)": "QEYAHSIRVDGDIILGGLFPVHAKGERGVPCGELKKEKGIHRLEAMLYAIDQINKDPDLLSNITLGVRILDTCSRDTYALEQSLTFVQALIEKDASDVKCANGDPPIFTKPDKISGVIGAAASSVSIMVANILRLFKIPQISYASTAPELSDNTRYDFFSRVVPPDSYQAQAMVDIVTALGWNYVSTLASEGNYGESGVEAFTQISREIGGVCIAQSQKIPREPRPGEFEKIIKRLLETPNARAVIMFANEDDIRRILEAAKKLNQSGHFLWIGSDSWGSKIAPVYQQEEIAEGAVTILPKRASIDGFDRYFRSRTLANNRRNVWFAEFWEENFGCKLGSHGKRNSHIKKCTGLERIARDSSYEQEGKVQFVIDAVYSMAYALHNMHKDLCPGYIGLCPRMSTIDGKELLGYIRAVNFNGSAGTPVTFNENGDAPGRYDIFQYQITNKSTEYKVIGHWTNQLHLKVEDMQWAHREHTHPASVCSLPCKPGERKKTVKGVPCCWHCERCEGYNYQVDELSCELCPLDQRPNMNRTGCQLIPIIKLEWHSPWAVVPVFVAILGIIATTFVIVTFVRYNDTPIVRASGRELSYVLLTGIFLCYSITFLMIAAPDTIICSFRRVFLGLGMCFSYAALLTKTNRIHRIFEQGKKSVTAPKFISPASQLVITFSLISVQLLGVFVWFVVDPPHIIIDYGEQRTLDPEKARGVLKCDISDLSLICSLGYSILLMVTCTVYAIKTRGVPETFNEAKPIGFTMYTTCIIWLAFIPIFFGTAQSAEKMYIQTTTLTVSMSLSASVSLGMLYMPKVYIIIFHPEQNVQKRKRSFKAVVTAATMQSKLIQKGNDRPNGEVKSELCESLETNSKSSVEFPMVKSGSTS", "assay": "[…]GTPγS binding, inhibition of the potentiation by AZ12216052", "format": "cell-based", "data": [{"smiles": "NC(C(=O)O)(c1ccc(P(=O)(O)O)cc1)C1CC1", "note": "(racemic) [CPPG]", "values": [{"measurement": "[35S]GTPγS binding, inhibition of the potentiation by AZ12216052", "result": "The potentiator effect of AZ12216052 on mGluR8 is inhibited by group-II/III antagonists LY341495 and CPPG"}]}]}
